Values after ≈ are worked out from the molar mass of the structure shown.

Series [1] in a line: Pharmacokinetic experiment on rats: brain entry ratio (brain tissue/plasma concentration ratio). It counts as in vivo. To be noted: rat, male SD rats, po 10 mg/kg, Table 7. On the procedure: The drug concentration ratio of plasma and brain tissue in the pharmacokinetic experiment on rats was used to evaluate the entry of compounds into brain. All rats fasted overnight before administration; the test compounds were dissolved and administered orally (po) to male SD rats, with 3 rats in each group. After administration of the test compounds, blood was collected by jugular vein puncture at 0.5 hours with about 0.25 mL per sample. The whole brain was taken at the same time. The plasma and brain tissue drug concentration were determined by LC-MS/MS method, and the pharmacokinetic parameters were calculated by Phoenix WinNonlin7.0. The dosage was 10 mg/kg, and the vehicle was 5% CMC-Na aqueous solution.

A short description of series [2]: Rat liver microsome stability (RLM) experiment. To be noted: rat liver microsomal stability, Table 4; 0.5 mg protein/mL, NADPH, 37° C., 0-45 min. It counts as in vitro ADME. On the procedure:
Effect embodiment 3 Rat liver microsome stability (RLM) experiment
Rat liver microsomes (Xenotech, item No. R1000, lot No. 1310030), 100 mM potassium phosphate buffer solution (pH 7.4), 10 mM magnesium chloride.
Compound preparation: 5 μL of compound DMSO mother liquor (10 mM) was added to 495 μL of methanol to obtain an intermediate solution with a compound concentration of 100 μM. Then 50 μL of the intermediate solution was taken and dissolved in 450 μL of potassium phosphate buffer solution to obtain a test solution with a final concentration of 10 μM.
NADPH regeneration system (concentration of isocitrate dehydrogenase 1 unit/mL).
Liver microsomes (final concentration 0.5 mg protein/mL).
Reaction termination solution: cold acetonitrile containing 100 ng/mL Tolbutamide and 100 ng/mL Labetalol as an internal standard.
• (1) Preparation of buffer solution: • Buffer solution A: 1.0 L of 0.1 M potassium phosphate buffer solution containing 1.0 mM EDTA • Buffer solution B: 1.0 L of 0.1 M dipotassium phosphate buffer solution containing 1.0 mM EDTA • Buffer solution C: 0.1 M potassium phosphate buffer, 1.0 mM EDTA, pH 7.4, titrated with 700 mL of buffer solution B and buffer solution A, monitored by pH meter. • (2) Preparation of reference substance (ketanserin) and concentration of administration solution of the test substance:
[…]: […] 10 mM DMSO reference substance stock solution and test substance stock solution were added to 190 μL of ACN, respectively. 1.5 μM administration solution (containing 0.75 mg/mL liver microsomes): […] administration solution and 18.75 μL of 20 mg/mL liver microsomes were added to 479.75 μL of buffer C on a wet ice. • (3) NADPH was added to buffer solution C to obtain a NADPH stock solution (6 mM). • (4) 30 μL of 1.5 μM administration solution (containing 0.75 mg/mL of liver microsomes) was taken on the wet ice and added to the wells of the test plate at different time points (0-, 5-, 15-, 30-, 45-min), respectively. • (5) Firstly, 135 μL of ACN containing IS was added to the wells of a 0 min test plate, and then 15 μL of the NADPH stock solution (6 mM) was added. • (6) The test plate at other time points and the NADPH stock solution were pre-heated in a 37° C. water bath for 5 minutes. • (7) 15 μL of the NADPH stock solution (6 mM) was taken and added to a pre-incubated test plate, and the reaction was started and timed. • (8) At 5 min, 15 min, 30 min and 45 min, 135 μL of CAN containing IS was added to the corresponding test plate respectively, and the test was completed. • (9) Test plates were shaken with a shaker (IKA, MTS 2/4) for 10 min (600 rpm/min) and then centrifuged for 15 min (Thermo Multifuge×3R, 5594 g). • (10) 50 μL of supernatant from each well was added to a 96-well sample plate containing 50 μL of ultrapure water (Millipore, ZMQS50F01), and the samples were analyzed by LC/MS.

A short description of series [3]: Thermodynamic solubility in simulated intestinal fluid (TS in FaSSIF). To be noted: thermodynamic from solid, 37° C. The class given is physicochemical. Put shortly:
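About 0.3 mg solid shaken in 1.5 mL FaSSIF-V2 at 1000 rpm, 37° C, 4 hours, in duplicate, then filtered. Filtrate quantified by HPLC-UV against 1 μM-200 μM standards diluted from 10 mM DMSO stock.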

For the compound `COc1cc2nnc(-c3cc(C)on3)n2nc1OCc1ccc2c(n1)CCN(C1COC1)C2` [Embodiment 84, 3-(7-Methoxy-6-((6-(oxetan-3-yl)-5,6,7,8-tetrahydro-1,6-naphthyridin-2-yl)methoxy)-[1,2,4]triazolo[4,3-b]pyridazin-3-yl)-5-methylisoxazole], the Kp (in general, the ratio of the level in a tissue or fluid to that in plasma or blood) at 0.5 h in series [1] came out at 0.0045. The RLM in series [2] was 0 µL/min/mg. For the same compound, the solubility (thermodynamic) (as a rule, solubility found after equilibrating the solid with the medium) at 4 h in series [3] is 197 µg/mL (≈ 438 µM).
The matching figures for `COc1cc2nnc(-c3cc(C)on3)n2nc1OCc1ccc(C2(F)CN(C3COC3)C2)cn1` [Embodiment 128]: 0.032, 6 µL/min/mg and 118 µg/mL (≈ 253 µM).
The matching figures for `COCCCOc1ccc(COc2nn3c(-c4noc(C)n4)nnc3cc2OC)nn1` [Embodiment 129]: 0.047, 14 µL/min/mg and 85.4 µg/mL (≈ 199 µM).
Regarding `COCc1ccc(COc2nn3c(-c4cc(C)on4)nnc3cc2OC)nn1` [Embodiment 151], in series [1], the Kp at 0.5 h was 0.02. In addition, the RLM in series [2] came to 1 µL/min/mg. The solubility (thermodynamic) at 4 h in series [3] was 175 µg/mL (≈ 456 µM).
Regarding `COc1cc2nnc(-c3cc(C)on3)n2nc1OCc1ccc(OC2CCOCC2)nn1` [Embodiment 152], the Kp at 0.5 h in series [1] turned out to be 0.0243. The compound also showed an RLM in series [2] of 23 µL/min/mg. Also, in series [3], the thermodynamic solubility at 4 h was 44 µg/mL (≈ 100 µM).
`COc1cc2nnc(-c3cc(C)on3)n2nc1OCc1ccc(OC2COC2)nn1` [Embodiment 153]: the Kp at 0.5 h in series [1] was determined as 0.02. The RLM in series [2] is 5 µL/min/mg. For the same compound, the thermodynamic solubility at 4 h in series [3] was 189 µg/mL (≈ 460 µM).
`COc1cc2nnc(-c3cc(C)on3)n2nc1OCc1ccc(OC2CCOC2)nn1` (stereo not drawn) [Embodiment 154]: the Kp at 0.5 h in series [1] came out at 0.0257. In series [2], this compound yielded an RLM of 1 µL/min/mg. The same compound had a thermodynamic solubility at 4 h in series [3] of 177 µg/mL (≈ 416 µM).
The matching figures for `COc1cc2nnc(-c3cc(C)on3)n2nc1OCc1ccc2c(n1)CN(C)C2` [Embodiment 160, 3-(7-Methoxy-6-((6-methyl-6,7-dihydro-5H-pyrrolo[3,4-b]pyridin-2-yl)methoxy)-[1,2,4]triazolo[4,3-b]pyridazin-3-yl)-5-methylisoxazole]: 0.0441, 6 µL/min/mg and 246 µg/mL (≈ 625 µM).
For `COCCOCc1ccc(COc2nn3c(-c4cc(C)on4)nnc3cc2OC)nn1` [Embodiment 166], in that order: 0.01, 0 µL/min/mg and 300 µg/mL (≈ 702 µM).
For `COc1cc2nnc(-c3cc(C)on3)n2nc1OCc1ccc2c(n1)CCN(C(CO)CO)C2` [Embodiment 185], in that order: 0, 9 µL/min/mg and 239 µg/mL (≈ 511 µM).
For the compound `COc1cc2nnc(-c3cc(C)on3)n2nc1OCc1ccc2c(n1)CCN(C1CCOCC1)C2` [Embodiment 186], the Kp at 0.5 h in series [1] was found to be 0.0442. This compound also showed an RLM in series [2] of 22 µL/min/mg. Also, the solubility (thermodynamic) at 4 h in series [3] is 95.4 µg/mL (≈ 200 µM).
The matching figures for `COc1cc2nnc(-c3cc(C)on3)n2nc1OCc1ccc2c(n1)CCN(Cc1cc(C)on1)C2` [Embodiment 187]: 0.0293, 15 µL/min/mg and 176 µg/mL (≈ 361 µM).
For `COCc1cn2nc(COc3nn4c(-c5cc(C)on5)nnc4cc3OC)ccc2n1` [Embodiment 213], in that order: 0.0179, 10 µL/min/mg and 30.2 µg/mL (≈ 71.4 µM).
For `COc1cc2nnc(-c3cc(C)on3)n2nc1OCc1ccc2c(n1)CN(C1CCOCC1)C2` [Embodiment 253], in that order: 0.0133, 10 µL/min/mg and 38.9 µg/mL (≈ 83.9 µM).

These data come from patent US12637468B2, “Substituted [1,2,4]triazolo[4,3-b]pyridazines as GABAA receptor modulators” (SHANGHAI SIMR BIOTECHNOLOGY CO., LTD., priority 2019, dated 2026).
